Experimental data from ChEMBL document CHEMBL1201862, “PubChem BioAssay data set” (2004).
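1) Cells in 96-well plates. 2) Compound, 48 h, 5 concentrations. 3) Linear interpolation between surrounding doses. 4) Unreached endpoint = highest concentration. At the GI50, growth is halved.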 The source made the active and inactive calls. Cut-off read from the data, not from the text of the source: active = GI50 up to about 1.1 µM and inactive = higher.

Columns and labels:
Test in all cases: growth of human tumour cells (NCI), 48 h
A498 = tested on: A498
CCRF-CEM = tested on: CCRF-CEM
COLO 205 = tested on: COLO 205
DLD-1 = tested on: DLD-1
DMS-273 = tested on: DMS-273
EKVX = tested on: EKVX
HL-60 = tested on: HL-60
IGROV-1 = tested on: IGROV-1
KM-20L2 = tested on: KM-20L2
SF-295 = tested on: SF-295
XF498 = tested on: XF498
OVCAR-3 = tested on: OVCAR-3
BT-549 = tested on: BT-549
DU-145 = tested on: DU-145
MCF7 = tested on: MCF7
MDA-MB-231 = tested on: MDA-MB-231
PC-3 = tested on: PC-3
T47D = tested on: T47D
NCI/ADR-RES = tested on: NCI/ADR-RES

Row | Structure (SMILES) | GI50 (A498) | GI50 (CCRF-CEM) | GI50 (COLO 205) | GI50 (DLD-1) | GI50 (DMS-273) | GI50 (EKVX) | GI50 (HL-60) | GI50 (IGROV-1) | GI50 (KM-20L2) | GI50 (SF-295) | GI50 (XF498) | GI50 (OVCAR-3) | GI50 (BT-549) | GI50 (DU-145) | GI50 (MCF7) | GI50 (MDA-MB-231) | GI50 (PC-3) | GI50 (T47D) | GI50 (NCI/ADR-RES)
1 | O=C(Nc1ccc(Cl)c(Cl)c1)C(=O)C(C(=O)c1ccccc1F)C1OC(=O)c2ccccc21 (stereo not given) | 37.8 µM (inactive) | 13.8 µM (inactive) | 16.1 µM (inactive) | 26.4 µM (inactive) | 13.2 µM (inactive) | 22.4 µM (inactive) | 14.1 µM (inactive) | 27.4 µM (inactive) | 23.6 µM (inactive) | 37.5 µM (inactive) | 31.8 µM (inactive) |  |  |  |  |  |  |  | 
2 | NC(=O)OCC(COc1ccc(Cl)cc1)OC(=O)c1cc([N+](=O)[O-])cc([N+](=O)[O-])c1 (stereo not given) | > 100 µM (inactive) | 97.3 µM (inactive) | 39 µM (inactive) | 55.2 µM (inactive) | > 100 µM (inactive) | > 100 µM (inactive) | > 100 µM (inactive) | > 100 µM (inactive) | > 100 µM (inactive) | > 100 µM (inactive) | 58.2 µM (inactive) | > 100 µM (inactive) |  |  |  |  |  |  | 
3 | ON(Cc1ccccc1)C(=S)c1ccccc1 | 25.3 µM (inactive) | 0.342 µM (active) | 1.45 µM (inactive) | 5.18 µM (inactive) | 2.62 µM (inactive) | 7.23 µM (inactive) | 0.927 µM (active) | 5.86 µM (inactive) | 4.41 µM (inactive) | 3.42 µM (inactive) | > 41.7 µM (inactive) | 2.72 µM (inactive) | 39.2 µM (inactive) | 7.38 µM (inactive) | 3.28 µM (inactive) | 21.4 µM (inactive) | 3.03 µM (inactive) | 5.9 µM (inactive) | 
4 | CC1CC(c2ccccc2)=Nc2ccccc2S1 (stereo not given) | > 100 µM (inactive) | 34.7 µM (inactive) | > 100 µM (inactive) | > 100 µM (inactive) | > 100 µM (inactive) | 72.8 µM (inactive) | 58.9 µM (inactive) | > 100 µM (inactive) | > 100 µM (inactive) | > 100 µM (inactive) | > 100 µM (inactive) |  |  |  |  |  |  |  | 
5 | CCOC(=O)Cc1cc(OC)c(OC)cc1/C(Cl)=C(\CO)c1ccc(OC)c(OC)c1 |  | > 100 µM (inactive) | > 100 µM (inactive) | > 100 µM (inactive) | > 100 µM (inactive) | > 100 µM (inactive) | > 100 µM (inactive) | > 100 µM (inactive) | > 100 µM (inactive) | 39.8 µM (inactive) | 16.9 µM (inactive) | 57.7 µM (inactive) |  |  |  |  |  |  | 
6 | C=C(C)C1Cc2c(cc(O)c3c(=O)c4ccccc4n(C)c23)O1 (stereo not given) | 24.3 µM (inactive) | 15.4 µM (inactive) | > 100 µM (inactive) | 27.1 µM (inactive) | 31.3 µM (inactive) |  | 39 µM (inactive) |  | > 100 µM (inactive) | 7.45 µM (inactive) | 23.8 µM (inactive) |  |  |  |  |  |  |  | 
7 | COc1cc(C2c3cc4c(cc3[C@@H](Nc3cccc(CO)c3)C3COC(=O)[C@H]23)OCO4)cc(OC)c1O (stereo not given in full) | 0.293 µM (active) | 0.078 µM (active) | 1.54 µM (inactive) | 1.43 µM (inactive) | 0.153 µM (active) | 3.31 µM (inactive) | < 0.0218 µM (active) | 1.62 µM (inactive) | 0.766 µM (active) | 0.218 µM (active) | 0.154 µM (active) | 1.32 µM (inactive) |  |  | 0.22 µM (active) |  |  |  | 1.34 µM (inactive)
8 | COC1=CC(=O)[C@@]2(C)C(C)[C@H](c3ccccc3)[C@H]2C1=O (stereo not given in full) | > 100 µM (inactive) | > 100 µM (inactive) | > 100 µM (inactive) | > 100 µM (inactive) | > 100 µM (inactive) | > 100 µM (inactive) | > 100 µM (inactive) | > 100 µM (inactive) | > 100 µM (inactive) | > 100 µM (inactive) | > 100 µM (inactive) | > 100 µM (inactive) |  |  |  |  |  |  | 
9 | S=C=NCCc1ccccc1 [PHENETHYLISOTHIOCYANATE] | 0.431 µM (active) | 0.186 µM (active) | 0.762 µM (active) | 0.0596 µM (active) | 0.255 µM (active) | 16.8 µM (inactive) | 0.385 µM (active) | 0.435 µM (active) | 0.729 µM (active) | 1.57 µM (inactive) | 2.39 µM (inactive) | 0.612 µM (active) |  |  |  |  |  |  | 
